Results on 18 compounds are retold here after US9309263B2, “Fused multi-cyclic sulfone compounds as inhibitors of beta-secretase and methods of use thereof” (AMGEN INC., priority 2013, dated 2016).

The IC50 is the concentration at which inhibition is half-maximal.

The target in assay [1] is Beta Secretase enzyme (BACE) (Homo sapiens, UniProt P56817). Put plainly: In vitro enzymatic BACE FRET assay. The class given is biochemical. Conditions: read-out: BACE1 FRET assay IC50. In short, it runs like this:
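Cleavage of a quenched 50 nM FRET peptide substrate, read as fluorescence (excitation 488 nm, […]) after 1 h and Tris quench to neutrality. Buffer: 0.05 M acetate pH 4.2 with 10% DMSO and 100 uM genapol. Inhibitor dilutions were pre-incubated 1 h with 0.2 nM enzyme.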

Assay [2] concerns Aβ 40 in conditioned medium of cells stably expressing Amyloid Precursor Protein (APP). Put plainly: In vitro BACE cell-based assay (Aβ 40 sandwich ELISA). The procedure, abridged: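 Aβ40 in conditioned medium measured by pAb40/biotin-6E10 sandwich ELISA with time-resolved europium fluorescence, after 24 h exposure of stable APP cells to compounds (10-point series starting 100 μM or 10 μM; 0.1% DMSO). IC50 fitted from percent of control against concentration.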

Another assay deals with Cathepsin D (Cat D) (Homo sapiens, UniProt P07339). Put plainly: In vitro enzymatic Cathepsin D (Cat D) FRET assay. The class given is biochemical. In short, it runs like this: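 FRET peptide substrate (20 nM) is cleaved by CHO-derived recombinant enzyme (9 nM) for 1 h after a 1 h inhibitor pre-incubation, at pH 3.5 in citrate buffer with 5 mM CHAPS and 10% DMSO. Tris addition ends the reaction; fluorescence measured at 500 nm excitation, 580 nm emission.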

Where [3] appears, read: Homo sapiens, HEK293, HEK cell, average IC50.
The mark [4] stands for this setting: text summary referring to data in Table 2.
[5] abbreviates: average IC50, in vitro enzymatic BACE FRET assay.
The mark [6] stands for this setting: Cathepsin D FRET assay, read-out: CatD IC50.
Where [7] appears, read: Homo sapiens, HEK293, average IC50, HEK cell assay, Aβ 40 readout.
Setting [8] is: Homo sapiens, HEK293, HEK cells, average IC50.

Where two headings read alike, the source gives them in different places. Where only a bound is given, the exact number is not on record here.

Cathepsin D (Cat D), sequence (P07339 65-412, species assumed): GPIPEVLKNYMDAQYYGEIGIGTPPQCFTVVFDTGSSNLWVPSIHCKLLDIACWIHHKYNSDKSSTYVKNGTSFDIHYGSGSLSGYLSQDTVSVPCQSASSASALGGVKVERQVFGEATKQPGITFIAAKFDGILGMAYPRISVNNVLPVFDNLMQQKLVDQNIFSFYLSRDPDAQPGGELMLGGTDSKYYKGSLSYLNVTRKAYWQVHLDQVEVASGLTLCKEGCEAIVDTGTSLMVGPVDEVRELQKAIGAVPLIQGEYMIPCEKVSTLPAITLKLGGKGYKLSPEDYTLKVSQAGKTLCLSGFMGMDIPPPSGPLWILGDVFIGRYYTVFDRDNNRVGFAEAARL
Beta Secretase enzyme (BACE), sequence (P56817 46-501): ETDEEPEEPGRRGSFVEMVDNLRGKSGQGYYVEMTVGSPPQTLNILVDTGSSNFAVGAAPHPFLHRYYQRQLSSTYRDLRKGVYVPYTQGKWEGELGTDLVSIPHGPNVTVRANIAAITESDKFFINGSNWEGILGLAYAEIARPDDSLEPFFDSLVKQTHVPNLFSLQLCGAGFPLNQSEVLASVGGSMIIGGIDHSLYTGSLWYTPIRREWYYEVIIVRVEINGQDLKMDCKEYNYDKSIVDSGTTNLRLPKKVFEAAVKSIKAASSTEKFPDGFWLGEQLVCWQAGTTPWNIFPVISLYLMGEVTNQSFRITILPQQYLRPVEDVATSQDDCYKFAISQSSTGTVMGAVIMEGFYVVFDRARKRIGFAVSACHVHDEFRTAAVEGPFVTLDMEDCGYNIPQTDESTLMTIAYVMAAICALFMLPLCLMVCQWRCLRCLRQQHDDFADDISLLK

As to `CC#C[C@H](C)Oc1cnc(C(=O)Nc2ccc3c(c2)[C@@]2(C)N=C(N)C(C)(C)S(=O)(=O)[C@@H]2CCO3)cn1` [Example 15, N-((4aR,11bR)-2-amino-3,3,11b-trimethyl-4,4-dioxido-4a,5,6,11b-tetrahydro-3H-[1]benzoxepino[4,5-b][1,4]thiazin-10-yl)-5-(((1S)-1-methyl-2-butyn-1-yl)oxy)-2-pyrazinecarboxamide], the IC50 is 0.003 µM in assay [1] (average IC50), 0.0005 µM in assay [2] (setting [3]), 1970 µM at Cathepsin D (Cat D) (read-out: CatD IC50) and above 1200 µM at Cathepsin D (Cat D) (setting [4]).
Consider `CC1(C)C(N)=N[C@]2(CF)c3cc(Nc4nccc5cc(Cl)cnc45)ccc3OCC[C@@H]2S1(=O)=O` [Example 154, (4aS,11bS)-N1^~10^~-(3-chloro-1,7-naphthyridin-8-yl)-11b-(fluoromethyl)-3,3-dimethyl-4a,5,6,11b-tetrahydro-3H-[1]benzoxepino[4,5-b][1,4]thiazine-2,10-diamine 4,4-dioxide], for which the IC50 in assay [1] (setting [5]) is 0.003 µM; in assay [2] (average IC50, HEK cell assay, Aβ 40 readout), 0.032 µM; on Cathepsin D (Cat D) (setting [6]), 462 µM.
As for `COc1cnc(C(=O)Nc2ccc3c(c2)[C@@]2(C)N=C(N)C(C)(C)S(=O)(=O)[C@@]2(F)CCO3)cn1` [Example 89, N-((4aS,11bR)-2-amino-4a-fluoro-3,3,11b-trimethyl-4,4-dioxido-4a,5,6,11b-tetrahydro-3H-[1]benzoxepino[4,5-b][1,4]thiazin-10-yl)-5-methoxy-2-pyrazinecarboxamide], the IC50 in assay [1] (setting [5]) worked out at 0.028 µM; in assay [2] (setting [7]), 0.05 µM; at Cathepsin D (Cat D) (setting [6]), 400 µM.
For the compound `Cc1cc(Cl)cnc1C(=O)Nc1ccc2c(c1)[C@@]1(CF)N=C(N)C(C)(C)S(=O)(=O)[C@@H]1CCO2` [Example 149, N-((4aR,11bS)-2-amino-11b-(fluoromethyl)-3,3-dimethyl-4,4-dioxido-4a,5,6,11b-tetrahydro-3H-[1]benzoxepino[4,5-b][1,4]thiazin-10-yl)-5-chloro-3-methyl-2-pyridinecarboxamide], the IC50 in assay [1] (setting [5]) was 0.009 µM; in assay [2] (setting [7]), 0.044 µM; on Cathepsin D (Cat D) (setting [6]), above 400 µM.
On to `COc1cnc(C(=O)Nc2ccc3c(c2)[C@@]2(C)N=C(N)C(C)(C)S(=O)(=O)[C@H]2CCC3)c(C)c1` [Example 32, N-((4aS,11bR)-2-amino-3,3,11b-trimethyl-4,4-dioxido-3,4a,5,6,7,11b-hexahydrobenzo[3,4]cyclohepta[1,2-b][1,4]thiazin-10-yl)-5-methoxy-3-methyl-2-pyridinecarboxamide], for which the IC50 in assay [1] (average IC50) is 0.073 µM; in assay [2] (setting [3]) it was 0.021 µM; at Cathepsin D (Cat D) (read-out: CatD IC50) it was 1340 µM; on Cathepsin D (Cat D) (setting [4]), above 1200 µM.
Take `CCc1ccc(C(=O)Nc2ccc3c(c2)[C@@]2(C)N=C(N)C(C)(C)S(=O)(=O)[C@@H]2CCO3)nc1` [Example 29, N-((4aR,11bR)-2-amino-3,3,11b-trimethyl-4,4-dioxido-4a,5,6,11b-tetrahydro-3H-[1]benzoxepino[4,5-b][1,4]thiazin-10-yl)-5-ethyl-2-pyridinecarboxamide]: the IC50 is 0.038 µM in assay [1] (average IC50), 0.01 µM in assay [2] (setting [3]), 1370 µM on Cathepsin D (Cat D) (read-out: CatD IC50) and above 1200 µM at Cathepsin D (Cat D) (setting [4]).
Regarding `C[C@H]1C[C@@H]2[C@](C)(N=C(N)C(C)(C)S2(=O)=O)c2cc(NC(=O)c3ncc(C(F)(F)F)cc3Cl)ccc2O1` [Example 73, N-((4aR,6S,11bR)-2-amino-3,3,6,11b-tetramethyl-4,4-dioxido-4a,5,6,11b-tetrahydro-3H-[1]benzoxepino[4,5-b][1,4]thiazin-10-yl)-3-chloro-5-(trifluoromethyl)-2-pyridinecarboxamide], the IC50 in assay [1] (average IC50) was 0.011 µM; in assay [2] (setting [3]), 0.004 µM; at Cathepsin D (Cat D) (read-out: CatD IC50), 1390 µM; on Cathepsin D (Cat D) (setting [4]), above 1200 µM.
Turning to `Cc1cc(Cl)cnc1C(=O)Nc1ccc2c(c1)[C@@]1(C)N=C(N)C(C)(C)S(=O)(=O)[C@]1(F)CCO2` [Example 65, N-((4aR,11bR)-2-amino-4a-fluoro-3,3,11b-trimethyl-4,4-dioxido-4a,5,6,11b-tetrahydro-3H-[1]benzoxepino[4,5-b][1,4]thiazin-10-yl)-5-chloro-3-methyl-2-pyridinecarboxamide], the values for the IC50 (in assay [1] (average IC50); in assay [2] (setting [3]); on Cathepsin D (Cat D) (read-out: CatD IC50)) were 0.006 µM, 0.074 µM and 324 µM, respectively.
Regarding `CCCOc1cnc(C(=O)Nc2ccc3c(c2)[C@@]2(C)N=C(N)C(C)(C)S(=O)(=O)[C@@H]2C[C@H](C)O3)cn1` [Example 79, N-((4aR,6S,11bR)-2-amino-3,3,6,11b-tetramethyl-4,4-dioxido-4a,5,6,11b-tetrahydro-3H-[1]benzoxepino[4,5-b][1,4]thiazin-10-yl)-5-propoxy-2-pyrazinecarboxamide], the IC50 in assay [1] (average IC50) was 0.005 µM; in assay [2] (setting [3]), 0.016 µM; at Cathepsin D (Cat D) (read-out: CatD IC50), 841 µM.
Take `COc1cnc(C(=O)Nc2ccc3c(c2)[C@@]2(C)N=C(N)C(C)(C)S(=O)(=O)[C@@H]2CCC3)c(C)c1` [Example 42, N-((4aR,11bR)-2-amino-3,3,11b-trimethyl-4,4-dioxido-3,4a,5,6,7,11b-hexahydrobenzo[3,4]cyclohepta[1,2-b][1,4]thiazin-10-yl)-5-methoxy-3-methyl-2-pyridinecarboxamide]: the half-maximal inhibitory concentration (IC50) in assay [1] (average IC50) was 0.067 µM; in assay [2] (setting [3]), 0.032 µM; on Cathepsin D (Cat D) (read-out: CatD IC50), 2980 µM; on Cathepsin D (Cat D) (setting [4]), above 1200 µM.
`Cc1cc(Cl)cnc1C(=O)Nc1ccc2c(c1)[C@@]1(C)N=C(N)C(C)(C)S(=O)(=O)[C@H]1CCS2` [Example 115, N-((4aS,11bR)-2-amino-3,3,11b-trimethyl-4,4-dioxido-4a,5,6,11b-tetrahydro-3H-[1]benzothiepino[4,5-b][1,4]thiazin-10-yl)-5-chloro-3-methyl-2-pyridinecarboxamide]: the half-maximal inhibitory concentration (IC50) in assay [1] (setting [5]) came out at 0.006 µM; in assay [2] (setting [7]) it was 0.012 µM; on Cathepsin D (Cat D) (setting [6]), 276 µM.
On to `Cc1cc(Cl)cnc1C(=O)Nc1ccc2c(c1)[C@]1(C)N=C(N)C(C)(C)S(=O)(=O)[C@H]1CCO2` [Example 17, N-((4aS,11bS)-2-amino-3,3,11b-trimethyl-4,4-dioxido-4a,5,6,11b-tetrahydro-3H-benzo[6,7]oxepino[4,5-b][1,4]thiazin-10-yl)-5-chloro-3-methylpicolinamide], for which the results for the IC50 (in assay [1] (average IC50); in assay [2] (setting [3]); at Cathepsin D (Cat D) (read-out: CatD IC50)) were 1.46 µM, 0.833 µM and above 400 µM, respectively.
In the case of `CC1(C)C(N)=N[C@]2(C)c3cc(Nc4ncnc5cc(OCC6CC6)cnc45)ccc3OCC[C@H]2S1(=O)=O` [Example 167, (4aR,11bR)-N1^~10^~-(7-(cyclopropylmethoxy)pyrido[3,2-d]pyrimidin-4-yl)-3,3,11b-trimethyl-4a,5,6,11b-tetrahydro-3H-[1]benzoxepino[4,5-b][1,4]thiazine-2,10-diamine 4,4-dioxide], the IC50 came to 0.008 µM in assay [1] (average IC50), 0.029 µM in assay [2] (setting [8]) and 384 µM on Cathepsin D (Cat D) (read-out: CatD IC50).
In the case of `CC#CCOc1cnc2c(Nc3ccc4c(c3)C3(C)N=C(N)C(C)(C)S(=O)(=O)C3CCO4)nccc2c1` [Example 182, (4aR,11bR)-N^~10^~-(3-(2-butyn-1-yloxy)-1,7-naphthyridin-8-yl)-3,3,11b-trimethyl-4a,5,6,11b-tetrahydro-3H-[1]benzoxepino[4,5-b][1,4]thiazine-2,10-diamine 4,4-dioxide], the figures for the IC50 (in assay [1] (average IC50); in assay [2] (setting [8]); on Cathepsin D (Cat D) (read-out: CatD IC50)) were 0.003 µM, 0.014 µM and above 400 µM, respectively.
For the compound `COc1cnc2c(Nc3cnc4c(c3)[C@@]3(C)N=C(N)C5(CCC5)S(=O)(=O)[C@@H]3CCO4)nccc2n1` [Example 60], the IC50 in assay [1] (average IC50) is 0.037 µM; in assay [2] (setting [3]), 0.135 µM; on Cathepsin D (Cat D) (read-out: CatD IC50), above 400 µM.
Turning to `C[C@H]1C[C@H]2[C@](CF)(N=C(N)C(C)(C)S2(=O)=O)c2cc(Nc3nccc4cc(C#N)cnc34)ccc2O1` [Example 109, 8-(((4aS,6S,11bS)-2-amino-11b-(fluoromethyl)-3,3,6-trimethyl-4,4-dioxido-4a,5,6,11b-tetrahydro-3H-[1]benzoxepino[4,5-b][1,4]thiazin-10-yl)amino)-1,7-naphthyridine-3-carbonitrile], the 50% inhibitory concentration (IC50) was 0.003 µM in assay [1] (setting [5]), 0.008 µM in assay [2] (setting [7]) and above 400 µM on Cathepsin D (Cat D) (setting [6]).
Take `CC1(C)C(N)=N[C@]2(C)c3cc(NC(=O)c4ccc(C5CC5)cn4)ccc3OCC[C@H]2S1(=O)=O` [Example 179, N-((4aR,11bR)-2-amino-3,3,11b-trimethyl-4,4-dioxido-4a,5,6,11b-tetrahydro-3H-[1]benzoxepino[4,5-b][1,4]thiazin-10-yl)-5-cyclopropyl-2-pyridinecarboxamide]: the IC50 is 0.066 µM in assay [1] (average IC50), 0.035 µM in assay [2] (setting [8]) and 705 µM on Cathepsin D (Cat D) (read-out: CatD IC50).
With `Cc1cc(Cl)cnc1C(=O)Nc1ccc2c(c1)[C@@]1(C)N=C(N)C(C)(C)S(=O)(=O)[C@@H]1CCC2` [Example 11, N-((4aR,11bR)-2-amino-3,3,11b-trimethyl-4,4-dioxido-3,4a,5,6,7,11b-hexahydrobenzo[3,4]cyclohepta[1,2-b][1,4]thiazin-10-yl)-5-chloro-3-methyl-2-pyridinecarboxamide], the values for the IC50 (in assay [1] (average IC50); in assay [2] (setting [3]); at Cathepsin D (Cat D) (read-out: CatD IC50)) were 0.005 µM, 0.008 µM and 217 µM, respectively.
